The results in this text go back to ChEMBL document CHEMBL3879896.

Test system in one data set: not listed separately
Description: Cytotoxicity against mouse embryonic stem cells. Type of data set: cell-based. The settings on record: embryonic stem cell.
In turn, `CCCC(=O)C1(c2ccccc2)CCN(C(=O)c2ccc3[nH]ccc3c2)CC1` gave an Activity of 46 to 50 µM.

Regarding `CC(C)=CCC/C(C)=C/CNC(=O)CCc1c[nH]c2ccccc12`, the Activity fell in the range of 11 to 90 µM.

For `O=C(c1ccc2[nH]ccc2c1)N1CCN(C2c3ccccc3-c3ccccc32)CC1`, the Activity fell in the range of 46 to 52 µM.

Test system in the next data set: not listed separately
As to the kind of experiment: Cytotoxicity against human kidney cells. Type of data set: cell-based.
Settings: not given
`CCCC(=O)C1(c2ccccc2)CCN(C(=O)c2ccc3[nH]ccc3c2)CC1` registered an Activity of 23 to 48 µM.

With `CC(C)=CCC/C(C)=C/CNC(=O)CCc1c[nH]c2ccccc12`, the Activity fell in the range of 41 to 62 µM.

In turn, `O=C(c1ccc2[nH]ccc2c1)N1CCN(C2c3ccccc3-c3ccccc32)CC1` gave an Activity of 35 to 44 µM.

In a further data set the target is T1, Enoyl-[acyl-carrier-protein] reductase [NADH] (Mycobacterium tuberculosis) (UniProt P9WGR1).
T1 sequence (whole entry): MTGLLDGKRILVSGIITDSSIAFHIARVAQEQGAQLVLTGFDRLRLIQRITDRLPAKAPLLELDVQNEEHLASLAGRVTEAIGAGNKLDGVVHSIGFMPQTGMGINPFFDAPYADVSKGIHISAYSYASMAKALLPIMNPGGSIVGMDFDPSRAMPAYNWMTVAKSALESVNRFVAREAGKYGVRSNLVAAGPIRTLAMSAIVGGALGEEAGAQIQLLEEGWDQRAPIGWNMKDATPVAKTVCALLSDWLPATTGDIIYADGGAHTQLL
As to the kind of experiment: Inhibition of Mycobacterium tuberculosis InhA using octenoyl-CoA as substrate assessed as decrease in NADH consumption at 40 uM measured for 10 mins relative to control.
Settings: not given
A word on the inhibition: it is the drop in the measured response relative to a control, in per cent. Take `CC(C)C1C2CCC(NC(=O)CCc3c[nH]c4ccccc34)C1C2` (stereo unspecified): the inhibition was 28%.

For the molecule `CC1CN(C(=O)c2ccc3[nH]ccc3c2)CC(C)O1` (stereo unspecified), the inhibition amounted to 47%.

Take `FC(F)(F)c1ccnc(-n2cc(-c3ccc(Cl)cc3)cn2)n1`: the inhibition worked out at 8%.

Regarding `O=C(c1ccc(F)cc1)C1CCN(C(=O)c2ccc3[nH]ccc3c2)CC1`, the inhibition worked out at 84%.

For the molecule `O=C(Nc1ccc2ccccc2n1)c1ccc2[nH]ccc2c1`, the inhibition amounted to 16%.

Turning to `O=C(c1ccc2[nH]ccc2c1)N1CCN(c2ccccc2)CC1`, the inhibition is 73%.

For `CN(Cc1ccco1)C(=O)c1ccc(-c2ccccc2)cc1`, the inhibition is 29%.

Take `O=C(Cc1ccccc1F)NCCc1ccccc1`: the inhibition turned out to be 45%.

For `FC(F)(F)c1ccnc(-n2cc(-c3ccncn3)cn2)n1`, the inhibition amounted to 36%.

As for `O=C(c1ccc2[nH]ccc2c1)N1CCc2ccccc2C1`, the inhibition is 86%.

`COc1ccc([N+](=O)[O-])c(-c2cnn(-c3nccc(C(F)(F)F)n3)c2)c1`: the inhibition came to 17%.

In the case of `COc1cc(CCNC(=O)CCCc2c[nH]c3ccccc23)cc(OC)c1`, the inhibition turned out to be 21%.

In the case of `O=C(Cc1ccccc1F)NCCO`, the inhibition is 34%.

As for `O=C(c1ccc2[nH]ccc2c1)N1CCN(c2ccc(F)cc2)CC1`, the inhibition was determined as 53%.

Take `O=C(c1ccc(-c2ccccc2)cc1)N1CCc2ccccc2C1`: the inhibition is 27%.

Take `O=C(c1cccnc1)c1ccc2[nH]ccc2c1`: the inhibition turned out to be 36%.

With `FC(F)(F)c1ccnc(-n2cc(-c3nc4ccccc4[nH]3)cn2)n1`, the inhibition was 36%.

Regarding `CN(Cc1ccccc1)C(=O)c1ccc(-c2ccccc2)cc1`, the inhibition came out at 44%.

On to `COc1cc2c(cc1OC)CN(C(=O)c1ccc3[nH]ccc3c1)CC2`, for which the inhibition is 86%.

With `O=C(Cc1ccccc1F)NCc1cccc(Cl)c1`, the inhibition came to 75%.

In the case of `COc1ccc(-c2cnn(-c3nccc(C(F)(F)F)n3)c2)cc1`, the inhibition was 4%.

With `O=C(c1ccc(-c2ccccc2)cc1)N1CCN(Cc2ccccc2)CC1`, the inhibition turned out to be 27%.

As for `O=C(Cc1ccccc1F)NCCC1=CCCCC1`, the inhibition stood at 56%.

As for `FC(F)(F)c1ccnc(-n2cc(-c3cccnc3)cn2)n1`, the inhibition is 36%.

On to `COc1ccccc1N1CCN(C(=O)c2ccc3[nH]ccc3c2)CC1`, for which the inhibition was determined as 78%.

On to `O=[N+]([O-])c1ccccc1-c1cnn(-c2nccc(C(F)(F)F)n2)c1`, for which the inhibition came to 14%.

For the molecule `CC(C)C1C2CCC(NC(=O)CCCc3c[nH]c4ccccc34)C1C2` (stereo unspecified), the inhibition amounted to 34%.

Regarding `FC(F)(F)c1ccnc(-n2cc(-c3ccnc4ccccc34)cn2)n1`, the inhibition was determined as 9%.

`O=C(CCCc1c[nH]c2ccccc12)Nc1ccc(N2CCCC2)cc1`: the inhibition was 28%.

On to `O=C(c1ccc2[nH]ccc2c1)N1CCN(c2ccccn2)CC1`, for which the inhibition was 36%.

On to `O=C(Cc1ccccc1F)NCCc1cccc(Cl)c1`, for which the inhibition worked out at 84%.

For the molecule `O=C(c1ccc2[nH]ccc2c1)N1CCN(Cc2ccc3c(c2)OCO3)CC1`, the inhibition worked out at 51%.

Take `O=C(c1ccc2[nH]ccc2c1)N1CCN(Cc2ccccc2)CC1`: the inhibition is 62%.

Consider `FC(F)(F)c1ccnc(-n2cc(-c3cnc4ccccc4n3)cn2)n1`, for which the inhibition is 36%.

In the case of `O=C(Cc1ccccc1F)NCCc1c[nH]c2ccccc12`, the inhibition is 47%.

For `O=C(CCCc1c[nH]c2ccccc12)NCc1ccc2c(c1)OCO2`, the inhibition was found to be 37%.

As to `CC(C)=CCC/C(C)=C/CNC(=O)CCCc1c[nH]c2ccccc12`, the inhibition is 51%.

For the molecule `FC(F)(F)c1ccnc(-n2cc(-c3ccc4ccccc4n3)cn2)n1`, the inhibition was 16%.

In the case of `O=C(Cc1ccccc1F)NCCC(c1ccccc1)c1ccccc1`, the inhibition stood at 63%.

`O=[N+]([O-])c1cc(Cl)ccc1-c1cnn(-c2nccc(C(F)(F)F)n2)c1`: the inhibition was 82%.

As for `O=C(c1ccc2[nH]ccc2c1)N1CCN(C(c2ccccc2)c2ccccc2)CC1`, the inhibition worked out at 106%.

Take `FC(F)(F)c1ccnc(-n2cc(-c3cnccn3)cn2)n1`: the inhibition stood at 9%.

`CN(CCc1ccccc1)C(=O)c1ccc(-c2ccccc2)cc1`: the inhibition came out at 32%.

Take `CC(C)=CCC/C(C)=C/CNC(=O)CCc1c[nH]c2ccccc12`: the inhibition worked out at 73%.

On to `COc1ccc(CCNC(=O)Cc2ccccc2F)cc1`, for which the inhibition was 63%.

Take `CS(=O)(=O)c1ccc(-c2cnn(-c3nccc(C(F)(F)F)n3)c2)c([N+](=O)[O-])c1`: the inhibition worked out at 10%.

`Cc1c(C)c(C)c(C(=O)C2CCN(C(=O)c3ccc4[nH]ccc4c3)CC2)c(C)c1C`: the inhibition is 78%.

Test system in a further data set: not listed separately
As to the kind of experiment: Cytotoxicity against human lung cells. The data set is classed as cell-based.
Settings: not given
Molecule `CCCC(=O)C1(c2ccccc2)CCN(C(=O)c2ccc3[nH]ccc3c2)CC1` yielded an Activity of 33 to 50 µM.

In turn, `CC(C)=CCC/C(C)=C/CNC(=O)CCc1c[nH]c2ccccc12` yielded an Activity of 11 to 48 µM.

In turn, `O=C(c1ccc2[nH]ccc2c1)N1CCN(C2c3ccccc3-c3ccccc32)CC1` returned an Activity of 24 to 48 µM.
